Measured values reported in patent US9902713B2, “Neuroprotective compounds and use thereof” (BOARD OF REGENTS OF THE UNIVERSITY OF TEXAS SYSTEM, priority 2013, dated 2018).
Entries after “also recorded” stand apart in the source; their conditions may differ.

Assays:
[1] = system: newborn hippocampal neurons; experiment: In vivo neuroprotection assay: BrdU+ newborn hippocampal neurons; set-up: species or system mice
Description: Results. Our most robust assay involves monitoring neuroprotection of newborn hippocampal neurons in mice because this assay gives a simultaneous readout of efficacy, acute toxicity and cell permeability. For this reason, all analogs of P7C3 were evaluated initially by infusing them directly into the left lateral ventricle of environmentally-deprived^ix live mice using a subcutaneously implanted osmotic minipump. Compounds were delivered intracerebroventricularly (ICV) over a 7 day period at a concentration of 10 μM (12 μL/d).^x Coincident with ICV administration of drug, mice were dosed daily with the thymidine analog bromodeoxyuridine (BrdU, IP, 50 mg/kg) to mark newly born hippocampal neural precursor cells. At the end of the 1 week dosing, animals were sacrificed and transcardially perfused. Brain slices were stained with antibodies to BrdU, and the number of surviving neural precursor cells was quantified by counting the number of BrdU+ cells in the hippocampal dentate gyrus. To avoid complications arising from the surgical implantation of the pump, we quantified neurogenesis in the hemisphere opposite to compound infusion. Finally, to obtain consistent data across many animals, the number of BrdU+ cells was normalized to the volume of the dentate gyrus.
In Vivo Neuroprotection Assay. Test compounds were evaluated as described previously.^2 Compounds were infused intracerebroventricularly (i.c.v.) into the left lateral ventricle of four adult (12 week old) wild-type C57BL/J6 mice by means of surgically implanted Alzet osmotic minipumps that delivered solution into animals at a constant rate of 0.5 μl/hour for 7 days. Alternatively, compounds were administered intraperitoneally twice daily. Bromodeoxyuridine (BrdU) was injected intraperitoneally at 50 mg/kg/day for six days during pump infusion. Twenty-four hours after the final BrdU administration, mice were sacrificed by transcardial perfusion with 4% paraformaldehyde at pH 7.4, and their brains were processed for immunohistochemical detection of incorporated BrdU in the SGZ. Dissected brains were immersed in 4% paraformaldehyde overnight at 4° C., then cryoprotected in sucrose before being sectioned into 40 μm thick free-floating sections. Unmasking of BrdU antigen was achieved through incubating tissue sections for two hours in 50% formamide/2×SSC at 65° C., followed by a five minute wash in 2×SSC and subsequent incubation for thirty minutes in 2M HCl at 37° C. Sections were processed for immunohistochemical staining with mouse monoclonal anti-BrdU (1:100). The number of BrdU+ cells in the entire dentate gyrus SGZ in the contralateral hemisphere (opposite side of surgically implanted pump) was quantified by counting BrdU+ cells within the SGZ and dentate gyrus in every fifth section throughout the entire hippocampus and then normalizing for dentate gyrus volume.

[2] = Metabolic stability in hepatocytes; format: in vitro ADME; details: murine hepatocytes
Description: The pharmacokinetic and toxicity profiles of P7C3-S243 were evaluated using both in vivo and in vitro methods. Having observed near complete metabolic stability in the presence of murine hepatocytes (T1/2>240 min), we monitored plasma and brain levels of the compound following IV, oral and IP dosing.

[3] = system: cultured hippocampal neurons; experiment: MPP+ toxicity in cultured neurons (MTT); format: cell-based; details: 10 μM compound, 10 μM MPP+, 24 hrs
Description: FIGS. 35A-35B show P7C3-S243 and P7C3-A20 protect cultured hippocampal and cortical neurons from MPP^+ toxicity. […] Experiments were performed 2 independent times with 8-12 replicates of each sample both times.

[4] = system: 6-OHDA-exposed rats; experiment: 6-OHDA rat model of Parkinson's disease; format: in vivo
Description: (FIG. 34A) Schematic of the experimental design illustrates that rats received a unilateral stereotactic injection of 6-OHDA or saline in the medial forebrain bundle (MFB), followed by daily injection of P7C3-S243 for 7 days. Open field and cylinder tests were performed 8-10 days after 6-OHDA injection, and the amphetamine circling test was conducted on day 11. Rats were transcardially perfused on day 14, and brain tissue was processed for neurochemistry and immunohistochemistry analysis. […] Scale bars=250 μm. […] No difference was found in the concentration of serotonin in all groups (one-way ANOVA). For all experiments in FIG. 34, n=10 per group except for the HPLC analysis, for which n=7.
FIGS. 36A-36F show pretreatment with P7C3-A20 or P7C3-S243 (10 mg/kg/day) protects rats from 6-OHDA toxicity. (FIG. 36A) Schematic of the experimental design illustrates that rats were pretreated for 3 days with either P7C3-A20 or P7C3-S243, and then administered either 6-OHDA or saline by stereotactic injection in the medial forebrain bundle (MFB), followed by 7 more days of treatment with either P7C3-A20 or P7C3-S243. Open field and cylinder tests were performed between days 8-10, and the amphetamine circling test was performed on day 11. Rats were transcardially perfused on day 14, and brain tissue was processed for neurochemistry and immunohistochemistry analysis. […] Scale bars=250 μm.
FIGS. 37A-37B show treatment of 6-OHDA-exposed rats with P7C3-S243 preserves both TH and NeuN staining, illustrating that TH staining corresponds to neuronal survival. […] DAPI was used as a nuclear marker.

[5] = in vivo; details: mouse; for Kp: brain and plasma
[6] = Long-term treatment: weight, behavior, appearance
[7] = system: degenerating axons; experiment: Silver staining of degenerating axons after blast-mediated TBI
Description: Optical densitometry of silver-stained tissue was used to quantify the magnitude of staining, such that greater impedance of light through the section reflected greater axonal degeneration (FIG. 18B).
All brains were stored in a freezer at −80° C. before sectioning. […] Every 1st-12th sections of each series of 12 sections (interval: 480 μm) were collected separately. All sections were stored free-floating in FD sections storage solution (FD Neurotechnologies, Columbia, Md.) at −20° C. before further processing.
For silver staining, sections were collected in 0.1 M phosphate buffer (pH 7.4) containing 4% paraformaldehyde and fixed for 5 days at 4° C. Sections were then processed for the detection of neurodegeneration with FD NeuroSilver Kit II (FD Neurotechnologies) according to the manufacturer's instructions (for detailed procedures, cf. the manual of PK301, available at www.fdneurotech.com). Subsequently, all sections were mounted on slides, dehydrated in ethanol, cleared in xylene, and coverslipped with Permount (Fisher Scientific, Fair Lawn, N.J.).
The microscope light intensity and camera exposure were held constant. The operator outlined areas of interest around specific brain regions and recorded the intensity of light passing through the slide. Degenerating axons allowed less light to pass through the section due to their uptake of silver stain, so lower light intensity correlated with increased degeneration. Operator performing quantification was blinded to condition and treatment.

[8] = biological target: 2C9 (Homo sapiens, UniProt P11712); experiment: Cytochrome P450 inhibition; format: in vitro ADME
[9] = biological target: (Homo sapiens, UniProt P10635); experiment: Cytochrome P450 inhibition; format: in vitro ADME; details: 3D6
[10] = system: U2OS cells; experiment: Protection from doxorubicin-mediated toxicity (Dox:Tox); format: cell-based
[11] = 10 mg/kg/day, 7 days after 6-OHDA
[12] = 10 mg/kg/day, pretreated 3 days plus 7 more days
[13] = single enantiomers, 3 mg/kg/day

2C9, sequence (P11712 whole entry): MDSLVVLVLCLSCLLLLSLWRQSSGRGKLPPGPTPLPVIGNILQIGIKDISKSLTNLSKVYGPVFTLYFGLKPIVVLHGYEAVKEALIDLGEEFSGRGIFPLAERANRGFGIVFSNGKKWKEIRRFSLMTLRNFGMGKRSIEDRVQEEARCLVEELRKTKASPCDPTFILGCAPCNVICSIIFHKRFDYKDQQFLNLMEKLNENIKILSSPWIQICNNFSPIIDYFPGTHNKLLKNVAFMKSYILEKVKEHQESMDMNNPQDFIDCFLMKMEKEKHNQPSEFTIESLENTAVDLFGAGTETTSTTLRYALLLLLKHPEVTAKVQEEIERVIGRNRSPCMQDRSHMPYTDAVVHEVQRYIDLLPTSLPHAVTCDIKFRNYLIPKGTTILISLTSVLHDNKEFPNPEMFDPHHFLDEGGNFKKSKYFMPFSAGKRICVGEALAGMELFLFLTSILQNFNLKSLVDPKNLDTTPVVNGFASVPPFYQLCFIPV
(Homo sapiens, UniProt P10635), sequence (P10635 whole entry): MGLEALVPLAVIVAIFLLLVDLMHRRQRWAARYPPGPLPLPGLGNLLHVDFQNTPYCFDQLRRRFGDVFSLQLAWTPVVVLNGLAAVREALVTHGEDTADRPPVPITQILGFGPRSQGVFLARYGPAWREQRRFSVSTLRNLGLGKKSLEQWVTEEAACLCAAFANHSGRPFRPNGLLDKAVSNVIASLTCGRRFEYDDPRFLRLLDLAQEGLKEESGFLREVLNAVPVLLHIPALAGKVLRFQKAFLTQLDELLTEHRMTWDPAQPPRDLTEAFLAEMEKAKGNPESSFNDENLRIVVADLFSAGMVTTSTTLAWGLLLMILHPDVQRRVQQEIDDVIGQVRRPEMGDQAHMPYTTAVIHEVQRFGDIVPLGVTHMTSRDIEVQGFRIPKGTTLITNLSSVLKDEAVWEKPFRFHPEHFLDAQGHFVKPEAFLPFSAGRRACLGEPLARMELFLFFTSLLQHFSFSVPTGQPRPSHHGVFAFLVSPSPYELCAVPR

COc1cccc(NCC(F)Cn2c3ccc(Br)cc3c3cc(Br)ccc32)n1 (racemic) [P7C3-S243, N-(3-(3,6-dibromo-9H-carbazol-9-yl)-2-fluoropropyl)-6-methoxypyridin-2-amine]
activity relative to P7C3 and P7C3-A20 ([1]; ICV, 1 week, FIG. 1): superior to P7C3 and comparable to P7C3-A20 | number of surviving newborn hippocampal neurons ([1]; ICV, 1 week, FIG. 1): approximately doubled | dose at ceiling of efficacy ([1]; administered intraperitoneally): 10 mg/kg/day | dose at which active ([1]; administered intraperitoneally): 1 mg/kg/day | T1/2 [2]: > 4 h | protection (MTT) [3]: significant protection | TH and NeuN immunofluorescence of the SNc ([4]; 10 mg/kg/day for 7 days): preservation of co-localized tyrosine hydroxylase (TH) and NeuN | TH-positive cells compared to 6-OHDA-Vehicle group [4, 11]: significant increase | ipsilateral rotations (amphetamine-circling) of 6-OHDA+vehicle animals compared to 6-OHDA+compound animals [4, 11]: significant increase | total distance traveled (open field) of 6-OHDA+vehicle animals compared to 6-OHDA+compound animals [4, 11]: significant decrease | total rearings (cylinder test) of 6-OHDA+vehicle animals compared to 6-OHDA+compound animals [4, 11]: significant decrease | striatal concentration of dopamine, DOPAC, and homovanillic acid compared to 6-OHDA-Vehicle group ([4]; 10 mg/kg/day, 7 days after 6-OHDA, HPLC): significant increase | TH-positive cells compared to 6-OHDA-Vehicle group [4, 12]: significant increase | ipsilateral rotations (amphetamine-circling) of 6-OHDA+vehicle animals compared to 6-OHDA+compound animals [4, 12]: significant increase | total distance traveled (open field) of 6-OHDA+vehicle animals compared to 6-OHDA+compound animals [4, 12]: significant decrease | total rearings (cylinder test) of 6-OHDA+vehicle animals compared to 6-OHDA+compound animals [4, 12]: significant decrease | Kp ([5]; ip, 10 mg/kg): 0.45 | Kp ([5]; ip, 20 mg/kg): 0.28 | Kp ([5]; iv, 10 mg/kg): 1.1 | Kp ([5]; po, 20 mg/kg): 0.81 | bioavailability ([5]; brain, po, 20 mg/kg): 58% | bioavailability ([5]; plasma, ip, 20 mg/kg): 90% | bioavailability ([5]; plasma, po, 20 mg/kg): 38% | impact on weight, behavior or appearance ([6]; up to 10 mg/kg/d for 21 d): no negative impact | axonal degeneration, cerebellar molecular layer ([7]; 0.3 mg/kg/day): Extensive axonal degeneration | silver staining in CA1, corpus callosum, thalamus, cortex, olfactory bulb, striatum, dentate gyrus, cerebellum ([7]; 0.3 mg/kg/day): prominent silver staining of degenerating axons | axonal degeneration, cerebellar molecular layer ([7]; 3 and 30 mg/kg/day): blocked | axonal degeneration, CA1 stratum radiatum ([7]; 3 and 30 mg/kg/day from 24 hours after injury): blocked | axonal and cellular degeneration, thalamus, cortex, CA1 ([7]; 14 days after injury, treatment from 24 hours, FIG. 7): ameliorated

COc1cccc(NCC(F)Cn2c3ccc(Br)cc3c3cc(Br)ccc32)n1 (single isomer, unassigned; (-)) [(−)-P7C3-S243, (−)-N-(3-(3,6-dibromo-9H-carbazol-9-yl)-2-fluoropropyl)-6-methoxypyridin-2-amine]
neuroprotective activity of pure enantiomers ([1]; ICV 0.5 μL/h, 7 days, FIG. 2): highly active; also recorded: high activity | sensitivity of cytochrome P450 [8]: insensitive | sensitivity of cytochrome P450 [9]: insensitive | axonal degeneration, CA1 stratum radiatum [7, 13]: complete protection from axonal degeneration | axonal degeneration, cerebellar molecular layer [7, 13]: blocked | silver staining in CA1, corpus callosum, thalamus, cortex, olfactory bulb, striatum, dentate gyrus, cerebellum [7, 13]: protected from axonal degeneration

COc1cccc(NCC(F)Cn2c3ccc(Br)cc3c3cc(Br)ccc32)c1 (stereo not shown) [P7C3-A20, N-(3-(3,6-dibromo-9H-carbazol-9-yl)-2-fluoropropyl)-3-methoxyaniline]
protection (MTT) [3]: significant protection | TH-positive cells compared to 6-OHDA-Vehicle group [4, 12]: significant increase | ipsilateral rotations (amphetamine-circling) of 6-OHDA+vehicle animals compared to 6-OHDA+compound animals [4, 12]: significant increase | total distance traveled (open field) of 6-OHDA+vehicle animals compared to 6-OHDA+compound animals [4, 12]: significant decrease | total rearings (cylinder test) of 6-OHDA+vehicle animals compared to 6-OHDA+compound animals [4, 12]: significant decrease | level of compound required for maximal Dox:Tox protection [10]: 3 µM | protection from doxorubicin-mediated cell toxicity ([10]; U2OS cells, FIG. 11): dose-responsive activity | impact on weight, behavior or appearance ([6]; up to 40 mg/kg/d for 21 d): no negative impact
